Consider ten compounds from ChEMBL document CHEMBL1201862, “PubChem BioAssay data set” (2004).

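Protocol summary: plate cells (96-well), add compound at 5 concentrations, incubate 48 h, interpolate endpoints linearly. GI50 = concentration required for 50% inhibition of growth.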 Calls of active or inactive are those of the source. Cut-off read from the data, not from the text of the source: active = GI50 up to about 1.1 µM and inactive = higher. Bounds are passed on as bounds.

Some test systems named below: HL-60; CAKI-1; HCT-116; SK-MEL-2; SF-295; SNB-78; K562; HOP-92; SR; SNB-19; SNB-75; CCRF-CEM; SK-OV-3; NCI-H226; U-251; HOP-62; TK-10; HT-29; MCF7; NCI/ADR-RES.
What all share (assay): inhibition of tumour cell growth, NCI panel, 48 h

Regarding `O=C(/C=C/c1ccc(Cl)cc1)c1ccncc1`, the GI50 was 32 µM (inactive) in the assay with HL-60; 30.8 µM (inactive) in the assay on CAKI-1; 62.2 µM (inactive) in the assay with HCT-116; > 100 µM (inactive) with SK-MEL-2; 47.1 µM (inactive) in the assay on SF-295; > 100 µM (inactive) in the assay with SNB-78. In addition, the GI50 in the assay on K562 was 52.2 µM (inactive); in the assay with HOP-92, > 100 µM (inactive); in the assay with SR, 45.9 µM (inactive); in the assay with SNB-19 it was 98.4 µM (inactive); in the assay on SNB-75, 22.1 µM (inactive); in the assay with CCRF-CEM it was 43.7 µM (inactive). Also, the GI50 in the assay with SK-OV-3 was > 100 µM (inactive); with NCI-H226, > 100 µM (inactive); with U-251 it was 44 µM (inactive); in the assay with HOP-62, 98.9 µM (inactive); in the assay with TK-10, 33.4 µM (inactive); in the assay with HT-29, 22.3 µM (inactive).
Regarding `Brc1ccccc1/C=N\C12CC3CC(CC(C3)C1)C2`, the GI50 with HL-60 was 0.879 µM (active); with CAKI-1 it was 24.8 µM (inactive); with HCT-116, 1.85 µM (inactive); with SK-MEL-2, > 81.3 µM (inactive); in the assay on MCF7 it was 7.24 µM (inactive); in the assay on SF-295, 63.8 µM (inactive). In addition, the GI50 in the assay on NCI/ADR-RES is > 100 µM (inactive); with SNB-78, > 91.4 µM (inactive); in the assay on K562, 1.02 µM (active); with HOP-92 it was 84.7 µM (inactive); in the assay on SR, 1.15 µM (inactive); with SNB-19 it was > 100 µM (inactive). In addition, the GI50 with SNB-75 is 38.2 µM (inactive); with CCRF-CEM, 4.54 µM (inactive); in the assay on SK-OV-3 it was > 100 µM (inactive); in the assay on NCI-H226, > 100 µM (inactive); in the assay on U-251, 12.9 µM (inactive); in the assay on HOP-62, > 81.8 µM (inactive). In addition, the GI50 with TK-10 is > 100 µM (inactive); in the assay on HT-29 it was 38.4 µM (inactive).
For the compound `Nc1nc2c(c(=O)[n-]1)[n+](CCO)cn2C1OC(CO)C(O)C1O` (centres undefined), the GI50 with HL-60, in the assay on CAKI-1, with HCT-116, in the assay with SK-MEL-2, in the assay with SF-295 and in the assay with SNB-78 was > 100 µM (inactive) throughout. Also, the GI50 in the assay on K562, in the assay on HOP-92, in the assay on SR, in the assay on SNB-75, in the assay with CCRF-CEM and in the assay with SK-OV-3 was > 100 µM (inactive) each time. Besides, the GI50 in the assay with NCI-H226, in the assay on U-251, in the assay on HOP-62, in the assay with TK-10 and in the assay on HT-29 was > 100 µM (inactive) throughout.
For the compound `C=C(C(=C)P(=S)(C(C)C)C(C)C)P(=S)(C(C)C)C(C)C`, the GI50 with HL-60, in the assay on CAKI-1, in the assay with HCT-116, in the assay on SF-295, in the assay with SNB-78 and with K562 was > 100 µM (inactive) in each case. The GI50 in the assay on HOP-92, in the assay on SR, with SNB-19, with SNB-75, in the assay with CCRF-CEM and with SK-OV-3 was > 100 µM (inactive) in each case. For the same compound, the GI50 in the assay with NCI-H226, with U-251, in the assay on HOP-62, with TK-10 and in the assay with HT-29 was > 100 µM (inactive) each time.
Regarding `COc1cc2c(cc1OC)C1Cc3cc(OC)c(OC)cc3N1CC2` (centres undefined), the GI50 with HL-60 is 20.9 µM (inactive); in the assay on CAKI-1 it was 21.9 µM (inactive); with HCT-116 it was 31.1 µM (inactive); with SK-MEL-2 it was 52.4 µM (inactive); in the assay on SF-295, 33.8 µM (inactive); with SNB-78, 39.8 µM (inactive). Besides, the GI50 was 27.5 µM (inactive) with K562; 33 µM (inactive) in the assay with HOP-92; 35.9 µM (inactive) in the assay with SR; 36.2 µM (inactive) with SNB-19; 21.4 µM (inactive) in the assay on SNB-75; 43.5 µM (inactive) in the assay on CCRF-CEM. Also, the GI50 with SK-OV-3 is 31.6 µM (inactive); in the assay on NCI-H226 it was 20.3 µM (inactive); in the assay with U-251 it was 35.4 µM (inactive); in the assay on HOP-62 it was 27.6 µM (inactive); with TK-10 it was 23 µM (inactive); with HT-29, 40 µM (inactive).
Turning to `N/N=C(\CCN1CCCC1)CC(c1ccccc1)c1c(O)c2ccccc2oc1=O` (centres undefined), the GI50 in the assay with HL-60, in the assay on CAKI-1, with HCT-116, in the assay on SK-MEL-2, in the assay with SF-295 and with SNB-78 was > 100 µM (inactive) throughout. The GI50 with K562 is > 100 µM (inactive); in the assay with HOP-92 it was 49 µM (inactive); in the assay on SR, > 100 µM (inactive); with SNB-19 it was > 100 µM (inactive); with SNB-75 it was 45.3 µM (inactive); with CCRF-CEM, > 100 µM (inactive). The GI50 in the assay with SK-OV-3, in the assay on NCI-H226, in the assay with U-251, in the assay with HOP-62, in the assay on TK-10 and in the assay on HT-29 was > 100 µM (inactive) throughout.
Regarding `CC(C)c1ccccc1NC(=O)CCc1n[nH]c(=S)o1`, the GI50 in the assay with HL-60 was > 59.8 µM (inactive); in the assay on CAKI-1 it was > 100 µM (inactive); in the assay on HCT-116, > 63.5 µM (inactive); in the assay with SF-295, > 100 µM (inactive); with SNB-78 it was > 100 µM (inactive); in the assay with K562, > 50.7 µM (inactive). Moreover, the GI50 in the assay with HOP-92 was > 100 µM (inactive); with SR, > 100 µM (inactive); with SNB-19 it was > 100 µM (inactive); with SNB-75, > 66.4 µM (inactive); in the assay on CCRF-CEM, > 64.1 µM (inactive); in the assay on SK-OV-3, > 100 µM (inactive). Further, the GI50 is > 100 µM (inactive) in the assay on NCI-H226; > 75.9 µM (inactive) in the assay on U-251; > 100 µM (inactive) in the assay with HOP-62; > 100 µM (inactive) in the assay on TK-10; > 90.4 µM (inactive) with HT-29.
As for `Cc1ccc(S(=O)(=O)OC2CS[S+]([O-])CC2OS(=O)(=O)c2ccc(C)cc2)cc1` (centres undefined), the GI50 with HL-60 was 6.01 µM (inactive); with CAKI-1, 12.9 µM (inactive); in the assay with HCT-116 it was 13.9 µM (inactive); with SF-295, 15.7 µM (inactive); in the assay with SNB-78 it was 17 µM (inactive); in the assay on K562, 4.02 µM (inactive). The GI50 with HOP-92 was 13 µM (inactive); in the assay with SR, 1.83 µM (inactive); with SNB-19 it was 17.6 µM (inactive); in the assay on SNB-75 it was 20.6 µM (inactive); in the assay on SK-OV-3, 21.7 µM (inactive); in the assay with NCI-H226, 19.4 µM (inactive). Further, the GI50 with U-251 is 14.8 µM (inactive); with HOP-62, 20.8 µM (inactive); with TK-10, 15.1 µM (inactive); with HT-29, 29.6 µM (inactive).
For `N#CC(C(=O)C(=O)C(C#N)c1ccc(Br)cc1)c1ccc(Br)cc1` (centres undefined), the GI50 was 4.06 µM (inactive) with HL-60; 21 µM (inactive) in the assay on CAKI-1; 14.1 µM (inactive) in the assay with HCT-116; 13.9 µM (inactive) in the assay with SK-MEL-2; 13.6 µM (inactive) in the assay on SF-295; 12.2 µM (inactive) in the assay on SNB-78. The GI50 was 12.6 µM (inactive) with K562; 13.3 µM (inactive) with HOP-92; 6.37 µM (inactive) in the assay on SR; 17 µM (inactive) with SNB-19; 5.13 µM (inactive) with SNB-75; 4.47 µM (inactive) in the assay on CCRF-CEM. In addition, the GI50 in the assay on SK-OV-3 was 15.7 µM (inactive); in the assay on NCI-H226, 18.1 µM (inactive); in the assay on U-251, 11.6 µM (inactive); in the assay with HOP-62, 13.2 µM (inactive); in the assay on TK-10, 16.8 µM (inactive); with HT-29 it was 8.59 µM (inactive).
Regarding `CS(=O)(=O)CS(=O)(=O)OCCCl`, the GI50 is 136 µM (inactive) in the assay on HL-60; 207 µM (inactive) with CAKI-1; 166 µM (inactive) with HCT-116; 304 µM (inactive) with SK-MEL-2; 229 µM (inactive) in the assay on MCF7; 60.8 µM (inactive) in the assay on SF-295. For the same compound, the GI50 in the assay with NCI/ADR-RES was 324 µM (inactive); with SNB-78, 96.8 µM (inactive); with K562, 216 µM (inactive); with HOP-92, 119 µM (inactive); in the assay with SR, 15.8 µM (inactive); in the assay with SNB-19, 96.4 µM (inactive). Besides, the GI50 was 46.8 µM (inactive) in the assay with SNB-75; 47 µM (inactive) in the assay on CCRF-CEM; 167 µM (inactive) in the assay on SK-OV-3; 177 µM (inactive) with NCI-H226; 72.3 µM (inactive) in the assay with U-251; 43.3 µM (inactive) in the assay on HOP-62. In addition, the figures for the GI50 with TK-10 and in the assay with HT-29 were 465 µM (inactive) and 427 µM (inactive), respectively.
